Experiments:
[1] = tested on: Bacillus licheniformis B-0891 (FERM BP-952) bilirubin oxidase (Invention Sample); test: Km value of the thermostable bilirubin oxidase of this invention; type: biochemical; settings: at pH 8.0; substrate bilirubin
Protocol: A reaction mixture (1.49 ml) of the above composition was placed in a small test tube. After heating it to 37° C., 0.01 ml of a 10 mM bilirubin solution was added to initiate the reaction. They were reacted at 37° C. for 10 minutes. After the reaction, 1.5 ml of 1% CPC (N-cetylpyridinium chloride) was added to terminate the reaction and the reaction mixture was subjected to the colorimetric analysis at 453 nm to determine its absorbance [S]. On the other hand, as a blank, a reaction mixture (1.44 ml) of the same type as the above-employed reaction mixture except for the exclusion of the enzyme solution was added with 0.01 ml of the bilirubin solution. The resultant mixture was incubated at 37° C. for 10 minutes precisely. Thereafter, 1.5 ml of 1% CPC and 0.05 ml of the bilirubin oxidase solution were added successively. The thus-prepared mixture was subjected to the colorimetric analysis at 453 nm to determine its absorbance [B]. The enzymatic activity is calculated in accordance with the following equation: [formula] wherein 1 unit (U) of the enzymatic activity is defined as the amount of enzyme which oxidizes 1 μmol of bilirubin per minute under the above-described conditions.

[2] = target: T1, bilirubin oxidase originated from Myrothecium (Prior Art Sample No. 3) (Albifimbria verrucaria, UniProt Q12737); settings: Prior Art Sample No. 3, originated from Myrothecium; substrate bilirubin; cited from earlier work
T1 sequence (Q12737 39-572): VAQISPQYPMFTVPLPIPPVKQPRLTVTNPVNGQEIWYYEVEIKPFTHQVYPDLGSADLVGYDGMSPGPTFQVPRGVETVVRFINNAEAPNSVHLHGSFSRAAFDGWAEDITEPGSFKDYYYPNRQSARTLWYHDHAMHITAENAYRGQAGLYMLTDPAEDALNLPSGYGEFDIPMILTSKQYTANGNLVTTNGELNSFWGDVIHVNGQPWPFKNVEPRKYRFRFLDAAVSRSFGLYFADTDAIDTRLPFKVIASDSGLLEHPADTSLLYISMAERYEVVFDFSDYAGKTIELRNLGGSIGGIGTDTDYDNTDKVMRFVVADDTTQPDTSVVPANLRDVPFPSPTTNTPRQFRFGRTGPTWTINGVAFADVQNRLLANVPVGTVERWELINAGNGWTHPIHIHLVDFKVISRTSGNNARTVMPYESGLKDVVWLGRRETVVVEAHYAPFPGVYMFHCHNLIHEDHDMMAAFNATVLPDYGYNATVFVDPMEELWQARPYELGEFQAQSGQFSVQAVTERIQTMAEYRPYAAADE

For C=CC1=C(C)/C(=C/c2[nH]c(Cc3[nH]c(/C=C4\NC(=O)C(C)=C4C=C)c(C)c3CCC(=O)O)c(CCC(=O)O)c2C)NC1=O [Bilirubin], the Km [1] is listed as 28.6 µM and the Km [2] is listed as 190 µM.
